Measurements taken from the NIST ThermoML archive (doi:10.1021/je3009599).

Conditions: Liquid

CCCC(=O)OCC [ethyl butanoate]
Conditions	vapor or sublimation pressure [kPa]
348.97 K	22.5
351.83 K	25
354.39 K	27.5
356.76 K	30.03
359 K	32.51
361.08 K	35.02
363.04 K	37.52
364.86 K	40.04
366.66 K	42.51
368.24 K	45.03
369.87 K	47.51
371.44 K	50.01
372.86 K	52.51
374.31 K	55.03
375.67 K	57.52
376.95 K	60
379.48 K	65.03
380.68 K	67.53
381.82 K	70
382.96 K	72.52
384.07 K	75.01
385.13 K	77.51
386.19 K	79.99
387.22 K	82.52
388.21 K	85.02
389.17 K	87.54
390.12 K	89.98
391.06 K	92.53
391.95 K	94.92
392.83 K	97.45
393.71 K	100.01
394.13 K	101.31

CCCC(C)O (stereo not given) [pentan-2-ol]
Conditions	vapor or sublimation pressure [kPa]
354.47 K	22.55
356.6 K	25.05
358.86 K	27.47
360.81 K	30.03
362.76 K	32.55
364.38 K	35.08
366 K	37.56
367.49 K	40.03
369.03 K	42.51
370.52 K	45.07
371.77 K	47.54
373.05 K	50.02
374.33 K	52.58
375.51 K	55.03
376.68 K	57.48
377.81 K	60.03
378.95 K	62.45
379.97 K	65.05
381.01 K	67.58
381.96 K	70.03
382.9 K	72.56
383.88 K	75.05
384.79 K	77.59
385.64 K	80.03
386.56 K	82.58
387.35 K	85.01
388.19 K	87.55
389 K	90.09
389.76 K	92.52
390.55 K	95.02
391.31 K	97.55
392.07 K	100.03
392.26 K	101.38
